Laboratory results taken from US6579868B1, “Purine derivatives and adenosine A2 receptor antagonists serving as preventives/remedies for diabetes” (Eisai Co., Ltd., priority 1998, dated 2003).
Counter-ions that a name gives are not always drawn.

How the values were obtained:
[1] = molecular target: T1, Human adenosine A1 receptor (Homo sapiens, UniProt P30542); test: Adenosine A1 receptor binding experiment (3H-CCPA); conditions: human A1 receptor expressed in CHOK1 membranes
T1 construct: expressed in transfected cells; host or cells: CHOK1 cells (membrane specimen)
T1 sequence (P30542 1-326): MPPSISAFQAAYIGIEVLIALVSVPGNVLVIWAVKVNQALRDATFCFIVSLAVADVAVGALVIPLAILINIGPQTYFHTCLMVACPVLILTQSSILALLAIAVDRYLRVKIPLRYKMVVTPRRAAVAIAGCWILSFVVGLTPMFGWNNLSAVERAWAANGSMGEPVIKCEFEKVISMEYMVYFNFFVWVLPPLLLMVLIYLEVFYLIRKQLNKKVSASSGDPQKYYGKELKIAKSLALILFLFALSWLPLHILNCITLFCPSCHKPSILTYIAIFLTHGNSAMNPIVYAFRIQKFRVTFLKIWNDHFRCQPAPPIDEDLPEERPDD
Description: Human adenosine A1 receptor cDNA was subjected to an over-expression in CHOK1 cells and its membrane specimen was suspended in an incubation buffer (20 mM HEPES, 10 mM MgCl2 and 100 mM NaCl; pH 7.4) to make the concentration 66.7 μg/ml. To 0.45 ml of this membrane specimen were added 0.025 ml of tritium-labeled chlorocyclopentyl adenosine (60 nM ^3H-CCPA; 30 Ci/mmol) and 0.025 ml of the compound to be tested. The solution of the compound to be tested was prepared in such a manner that, firstly, the compound was dissolved in DMSO to make 20 mM concentration and then successively diluted each 10-fold using an incubation buffer. The mixture was allowed to stand at 30° C. for 120 minutes, subjected to a quick suction on a glass fiber filter (GF/B; manufactured by Whatman) and immediately washed with 5 ml of ice-cooled 50mM Tris-HCl buffer twice. After that, the glass fiber filter was transferred to a vial bottle, a scintillator was added and the radioactivity on the filter was measured by a liquid scintillation counter. Calculation of the inhibition rate of the test compound to the receptor bond (^3H-CCPA) was carried out by the following expression and, based upon that, IC50 was calculated.
Inhibition Rate (%)=[1−{(Binding amount in the presence of drug-Non-specific binding amount)/(Total binding amount-Non-specific binding amount)}]×100
Total binding amount is a ^3H-CCPA binding radioactivity in the absence of the test compound.
Non-specific binding amount is a ^3H-CCPA binding radioactivity in the presence of 100 μM of RPIA.
Binding amount in the presence of drug is a ^3H-CCPA binding radioactivity in the presence of the test compound of various concentrations.
The inhibition constant (Ki value) in Table was calculated from Cheng-Prusoff's expression.

[2] = molecular target: T2, Human adenosine A2b receptor (Homo sapiens, UniProt P29275); test: Suppression of NECA-stimulated cAMP production in adenosine A2b receptor expressed CHOK1 cells; type: cell-based; conditions: NECA 30 nM
T2 construct: expressed in transfected cells; host or cells: CHOK1 cells
T2 sequence (P29275 1-332): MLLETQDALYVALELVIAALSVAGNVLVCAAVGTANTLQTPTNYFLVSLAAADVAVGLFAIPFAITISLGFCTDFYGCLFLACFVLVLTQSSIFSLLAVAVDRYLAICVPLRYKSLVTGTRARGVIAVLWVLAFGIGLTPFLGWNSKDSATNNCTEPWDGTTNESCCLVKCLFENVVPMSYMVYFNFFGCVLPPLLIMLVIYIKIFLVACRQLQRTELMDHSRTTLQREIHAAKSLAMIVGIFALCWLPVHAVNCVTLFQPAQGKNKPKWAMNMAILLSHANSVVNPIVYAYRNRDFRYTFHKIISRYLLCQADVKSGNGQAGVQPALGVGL
Description: Human adenosine A2b receptor cDNA was over-expressed in CHOK1 cells. […] Affinity of the test compound to the A2b receptor was evaluated in which the index used was the degree of suppression of the amount of cAMP produced by stimulation of NECA (30 nM) which was an adenosine agonist in the presence of the test compound. Thus, after washing with 2 ml/well of an incubation buffer (Krebs solution; pH7.4) twice, a pre-incubation was carried out at 0.5 ml/well for 30 minutes. […] After 15 minutes, the reaction was stopped by substituting 0.1N HCl (300 μl/well) for the reaction solution. Measurement of cAMP was carried out using an Amersham cAMP EIA Kit.
Calculation of the suppression rate of the test compound to the NECA-stimulated cAMP production was done by the following expression.
Inhibition Rate (%)=[1−{(cAMP amount in the presence of NECA and test compound-cAMP amount in the case of incubation buffer only)/(cAMP amount stimulated only by NECA-cAMP amount in the case of incubation buffer only)}]×100.
IC50 […]was calculated from the above.

adenosine A2a receptor = molecular target: T3, adenosine A2a receptor (Homo sapiens, UniProt P29274); test: Adenosine A2a receptor binding experiment (3H-CGS21680); conditions: A2a receptor membrane specimen
T3 construct: purchased Receptor Biology, Inc
Description: A membrane specimen prepared by an over-expression of adenosine A2a receptor was purchased from Receptor Biology, Inc. and adenosine A2a receptor binding experiments were carried out using that. […] To 0.45 ml of this membrane specimen were added 0.025 ml of tritium-labeled ^3H-CGS21680 (500 nM; 30 Ci/mmol) and 0.025 ml of the test compound. The solution of the test compound was prepared in such a manner that, firstly, the compound was dissolved in DMSO to make 20 mM concentration and then successively diluted each 10-fold using an incubation buffer. […] After that, the glass fiber filter was transferred to a vial bottle, a scintillator was added and the radioactivity on the filter was measured by a liquid scintillation counter. Calculation of the inhibition rate of the test compound to the receptor bond (^3H-CGS21680) of A2a was carried out by the following expression and, based upon that, IC50 was calculated. […]
Total binding amount is a ^3H-CGS21680 binding radioactivity in the absence of the test compound.
Non-specific binding amount is a ^3H-CGS21680 binding radioactivity in the presence of 100 μM of RPIA.
Binding amount in the presence of drug is a ^3H-CGS21680 binding radioactivity in the presence of the test compound of various concentrations.

[3] = system: spontaneous diabetic mice (KK-A^y/Ta Jcl); test: Action to hyperglycemia of spontaneous diabetic mice (KK-A^y/Ta Jcl), single oral administration; type: in vivo, mouse
Description: Animals: Five male KK-A^y/Ta Jcl mice for each group (purchased from Nippon Clair)
Preparation and Administration of Test Compound: A test compound in a dose as shown in Table 2 was suspended in a 0.5% aqueous solution of methyl cellulose and was orally administered in a dose of 10 ml/kg.
Collection of Blood Samples and Determination of Blood Sugar: Blood was collected from tail vein immediately before administration of the test compound and also five hours after the administration and blood sugar was determined.
(§1) Method: Tail vein of a mouse was injured by a razor without an anesthetization to bleed slightly. The blood (15 μl) was collected and immediately mixed with 135 μl of a 0.6 M perchloric acid. Glucose in the supernatant obtained by a centrifugal separation (at 1500 g for 10 minutes at 4° C. using a cooling centrifuge GS-6KR of Beckmann) was determined by a Glucose CII Test Wako (Wako Pure Chemicals).
The result is shown in terms of “(% ratio of the blood sugar after 5 hours from the administration to the blood sugar before the administration)±(standard error)”. The data were subjected to a one-way layout analysis of variance and then subjected to a multiple comparison of a Dunnett type. The case where p<0.05 was judged to be that a significant difference was available.
Animals: Five male KK-A^y/Ta Jcl mice for each group (introduced from Nippon Clair)
Preparation and Administration of Test Compound: A test compound in a dose shown in Table 6 was suspended in a 0.5% aqueous solution of methyl cellulose and was orally administered in a dose of 10 ml/kg.
as §1, with “vein of mouse was” for “vein of a mouse was”
The result is shown in terms of “(% ratio of the blood sugar after 5 hours from the administration to the blood sugar before the administration)±(standard error)”. The data were subjected to a one-way layout analysis of variance and then subjected to a multiple comparison of Dunnett type. The case where p<0.05 was judged that a significant difference was available.

[4] = Glucose tolerance test (impaired glucose tolerance); conditions: in vivo

T3 sequence (P29274 whole entry): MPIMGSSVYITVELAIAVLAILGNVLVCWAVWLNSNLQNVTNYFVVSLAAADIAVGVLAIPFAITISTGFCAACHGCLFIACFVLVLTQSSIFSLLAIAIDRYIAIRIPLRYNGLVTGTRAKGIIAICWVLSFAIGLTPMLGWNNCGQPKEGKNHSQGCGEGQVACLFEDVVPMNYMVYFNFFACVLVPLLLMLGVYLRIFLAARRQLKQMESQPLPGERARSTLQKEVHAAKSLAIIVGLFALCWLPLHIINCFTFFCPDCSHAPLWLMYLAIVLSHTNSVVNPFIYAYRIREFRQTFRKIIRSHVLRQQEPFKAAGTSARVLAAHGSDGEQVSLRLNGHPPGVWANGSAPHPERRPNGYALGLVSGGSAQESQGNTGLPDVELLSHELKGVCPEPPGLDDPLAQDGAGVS

| Compound | Ki [1] | IC50 [2] | other results |
| --- | --- | --- | --- |
| CCCn1c(=O)c2c(nc(/C=C/c3ccc(OC)c(OC)c3)n2C)n(CCC)c1=O [KF17837] |  | 1.36 µM |  |
| CCn1c(=O)c2c(nc(/C=C/c3ccc(OC)c(OC)c3)n2C)n(CC)c1=O | > 10 µM |  |  |
| Cn1c(-c2cccc(F)c2)nc2c(N)nc(C#CC3(O)CCCC3)nc21 [Compound B] |  | 0.07 µM |  |
| Fc1cccc(-c2nc3cccnc3n2-c2ccncc2)c1 [Compound C, 2-(3-Fluorophenyl)-(4-pyridyl)-3H-imidazo[4,5-b]pyridine Hydrochloride, reference compound] |  | 0.1 µM | % ratio of the blood sugar after 5 hours from the administration to the blood sugar before the administration ± standard error ([3]; Table 6-2, 30 mg/kg oral, solvent group 69.8 ± 2.3): 48.5 ± 3.4% |
| CCn1c(-c2cccc(F)c2)nc2c(N)nc(C#CC3(O)CCC3)nc21 [Compound A] |  | 0.028 µM | % ratio of the blood sugar after 5 hours from the administration to the blood sugar before the administration ± standard error ([3]; Table 6-1, 10 mg/kg oral, administered in a form of sulfate, solvent group 72.4 ± 4.4): 47.8 ± 4.8% |
| O=C(/C=C/c1c(-c2ccccc2)nn2ccccc12)N1CCCC[C@@H]1CCO [FK453, reference compound] |  |  | glucose tolerance improving action in glucose tolerance test (in words) [4]: no glucose tolerance improving action was noted; hypoglycemic action in the present diabetic models (in words) ([3]; even at the dose of 100 mg/kg): no hypoglycemic action was noted |

The next lines start with results.

| Ki [1] | IC50 [2] | Compound | other results |
| --- | --- | --- | --- |
| > 10 µM |  | CCCn1c(=O)c2c(nc(/C=C/c3ccc(OC)c(OC)c3)n2C)n(CCC)c1=O [drawing 263] |  |
| 0.019 µM |  | Cn1c(-c2cccc(F)c2)nc2c(N)nc(C#CC3(O)CCCC3)nc21 [drawing 260] |  |
| 0.024 µM |  | CCn1c(-c2cccc(F)c2)nc2c(N)nc(C#CC3(O)CCC3)nc21 [drawing 259] | Ki (adenosine A2a receptor): 0.002 µM |
| 0.054 µM |  | Fc1cccc(-c2nc3cccnc3n2-c2ccncc2)c1 [drawing 261] | Ki (adenosine A2a receptor): 0.75 µM |
